Results on one molecule are retold here after paper PMC5218480 (PLoS ONE, 2017).

The test relates to MV-4-11 cells. Briefly: Gene expression microarray analysis (Affymetrix PrimeView) and GSEA. The class given is cell-based, human. Set-up: RFU PODN (11730768_x_at) / Fold change /veh PODN (11730768_x_at) / RFU LINC00158 (11744669_a_at) / Fold change /veh LINC00158 (11744669_a_at) / RFU DUSP10 (11751237_a_at) / Fold change /veh DUSP10 (11751237_a_at) / RFU ID3 (11757404_x_at) / Fold change /veh ID3 (11757404_x_at) / RFU PLEKHG5 (11737974_s_at) / Fold change /veh PLEKHG5 (11737974_s_at) / RFU LRRC4B (11730491_at) / Fold change /veh LRRC4B (11730491_at) / RFU GIMAP4 (11747438_a_at) / Fold change /veh GIMAP4 (11747438_a_at) / RFU KRT8 (11758183_x_at) / Fold change /veh KRT8 (11758183_x_at) / RFU CNN1 (11734310_a_at) / Fold change /veh CNN1 (11734310_a_at) / RFU VPS37D (11726825_at) / Fold change /veh VPS37D (11726825_at) / RFU C10orf10 (11716522_x_at) / Fold change /veh C10orf10 (11716522_x_at) / RFU KIR2DL2 /// KIR2DL4 /// KIR2DL5A /// KIR2DL5B /// KIR2DS1 /// KIR2DS2 /// KIR2DS3 /// KIR2DS4 /// KIR3DL3 /// KIR3DL3 /// KIR3DS1 (11738374_at) / Fold change /veh KIR2DL2 /// KIR2DL4 /// KIR2DL5A /// KIR2DL5B /// KIR2DS1 /// KIR2DS2 /// KIR2DS3 /// KIR2DS4 /// KIR3DL3 /// KIR3DL3 /// KIR3DS1 (11738374_at) / RFU C1QL1 (11718748_at) / Fold change /veh C1QL1 (11718748_at) / RFU TMPRSS4 (11747572_a_at) / Fold change /veh TMPRSS4 (11747572_a_at) / RFU HAMP (11756126_x_at) / Fold change /veh HAMP (11756126_x_at) / RFU RNFT2 (11725882_a_at) / Fold change /veh RNFT2 (11725882_a_at) / RFU NR4A2 (11747474_a_at) / Fold change /veh NR4A2 (11747474_a_at) / RFU ABCC12 (11746883_a_at) / Fold change /veh ABCC12 (11746883_a_at) / RFU TMEM136 (11760407_x_at) / Fold change /veh TMEM136 (11760407_x_at) / RFU CLDN22 /// WWC2 (11732394_at) / Fold change /veh CLDN22 /// WWC2 (11732394_at) / RFU HLA-DPB1 (11760878_x_at) / Fold change /veh HLA-DPB1 (11760878_x_at) / RFU SPINT1 (11716480_a_at) / Fold change /veh SPINT1 (11716480_a_at) / RFU GAP43 (11754022_s_at) / Fold change /veh GAP43 (11754022_s_at) / RFU A4GNT (11735810_at) / Fold change /veh A4GNT (11735810_at) / RFU PRB3 (11715151_x_at) / Fold change /veh PRB3 (11715151_x_at) / RFU TUBB4B (11761932_at) / Fold change /veh TUBB4B (11761932_at) / RFU CAPN14 (11732068_a_at) / Fold change /veh CAPN14 (11732068_a_at) / RFU TMCC2 (11721928_a_at) / Fold change /veh TMCC2 (11721928_a_at) / RFU IRGQ (11745062_a_at) / Fold change /veh IRGQ (11745062_a_at) / RFU FAM174B (11720279_a_at) / Fold change /veh FAM174B (11720279_a_at) / RFU TMPRSS4 (11748680_a_at) / Fold change /veh TMPRSS4 (11748680_a_at) / RFU FAM212B (11763350_a_at) / Fold change /veh FAM212B (11763350_a_at) / RFU PLEKHG5 (11743358_a_at) / Fold change /veh PLEKHG5 (11743358_a_at) / RFU ZSCAN30 (11745921_a_at) / Fold change /veh ZSCAN30 (11745921_a_at) / RFU CMKLR1 (11741424_a_at) / Fold change /veh CMKLR1 (11741424_a_at) / RFU LOC101060620 /// MAPK8IP1 (11723275_at) / Fold change /veh LOC101060620 /// MAPK8IP1 (11723275_at) / RFU SPTSSB (11747773_x_at) / Fold change /veh SPTSSB (11747773_x_at) / RFU PRSS12 (11739890_at) / Fold change /veh PRSS12 (11739890_at) / RFU BIN1 (11741810_x_at) / Fold change /veh BIN1 (11741810_x_at) / RFU WNT11 (11732464_a_at) / Fold change /veh WNT11 (11732464_a_at) / RFU C10orf10 (11716521_a_at) / Fold change /veh C10orf10 (11716521_a_at) / RFU C5orf56 (11738089_at) / Fold change /veh C5orf56 (11738089_at) / RFU CYB561 (11721691_x_at) / Fold change /veh CYB561 (11721691_x_at) / RFU ANKRD19P (11752326_a_at) / Fold change /veh ANKRD19P (11752326_a_at) / RFU OR2T12 /// OR2T33 /// OR2T8 (11738714_s_at) / Fold change /veh OR2T12 /// OR2T33 /// OR2T8 (11738714_s_at) / RFU VCAN (11748164_a_at) / Fold change /veh VCAN (11748164_a_at) / RFU JSRP1 (11732532_at) / Fold change /veh JSRP1 (11732532_at) / RFU KRTAP10-11 (11738290_x_at) / Fold change /veh KRTAP10-11 (11738290_x_at) / RFU MYO3A (11730013_a_at) / Fold change /veh MYO3A (11730013_a_at) / RFU EBF3 (11725865_a_at) / Fold change /veh EBF3 (11725865_a_at) / RFU CAMK2N1 (11719241_x_at) / Fold change /veh CAMK2N1 (11719241_x_at) / RFU C5orf56 (11738088_a_at) / Fold change /veh C5orf56 (11738088_a_at) / RFU OLFML3 (11715873_a_at) / Fold change /veh OLFML3 (11715873_a_at) / RFU LOC100653217 /// NTM (11731650_a_at) / Fold change /veh LOC100653217 /// NTM (11731650_a_at) / RFU MAPK11 (11762145_a_at) / Fold change /veh MAPK11 (11762145_a_at) / RFU FIZ1 (11724087_x_at) / Fold change /veh FIZ1 (11724087_x_at) / RFU OASL (11726364_x_at) / Fold change /veh OASL (11726364_x_at) / RFU SOX15 (11748057_x_at) / Fold change /veh SOX15 (11748057_x_at) / RFU CD79A (11719716_a_at) / Fold change /veh CD79A (11719716_a_at) / RFU HIST1H1D (11736915_at) / Fold change /veh HIST1H1D (11736915_at) / RFU CASKIN2 (11723855_a_at) / Fold change /veh CASKIN2 (11723855_a_at) / RFU LOC730098 (11760151_x_at) / Fold change /veh LOC730098 (11760151_x_at) / RFU OR4N2 (11742367_at) / Fold change /veh OR4N2 (11742367_at) / RFU PRRT2 (11749266_a_at) / Fold change /veh PRRT2 (11749266_a_at) / RFU SNX32 (11753110_a_at) / Fold change /veh SNX32 (11753110_a_at) / RFU CDHR5 (11726645_a_at) / Fold change /veh CDHR5 (11726645_a_at) / RFU RCAN1 (11760418_a_at) / Fold change /veh RCAN1 (11760418_a_at) / RFU FAM167A (11723789_a_at) / Fold change /veh FAM167A (11723789_a_at) / RFU FAM26E (11764081_at) / Fold change /veh FAM26E (11764081_at) / RFU ISYNA1 (11749810_s_at) / Fold change /veh ISYNA1 (11749810_s_at) / RFU ACY1 (11761880_at) / Fold change /veh ACY1 (11761880_at) / RFU 11764098_at / Fold change /veh 11764098_at / RFU SAMD14 (11745864_x_at) / Fold change /veh SAMD14 (11745864_x_at) / RFU NPB (11741838_a_at) / Fold change /veh NPB (11741838_a_at) / RFU TMPRSS6 (11731388_a_at) / Fold change /veh TMPRSS6 (11731388_a_at) / RFU KRTAP10-2 (11738614_at) / Fold change /veh KRTAP10-2 (11738614_at) / RFU ARHGAP8 /// PRR5-ARHGAP8 (11727945_x_at) / Fold change /veh ARHGAP8 /// PRR5-ARHGAP8 (11727945_x_at) / RFU KRTAP5-7 /// NADSYN1 (11734609_at) / Fold change /veh KRTAP5-7 /// NADSYN1 (11734609_at) / RFU RASL12 (11751679_a_at) / Fold change /veh RASL12 (11751679_a_at) / RFU CDKN2B (11736163_a_at) / Fold change /veh CDKN2B (11736163_a_at) / RFU PRF1 (11729649_at) / Fold change /veh PRF1 (11729649_at) / RFU, ZNF638 /// ZNF638-IT1 / Fold change vs veh, ZNF638 /// ZNF638-IT1 / RFU, PANK3 / Fold change vs veh, PANK3 / RFU, SH3YL1 / Fold change vs veh, SH3YL1 / RFU, ZEB2 / Fold change vs veh, ZEB2 / RFU, NRIP1 / Fold change vs veh, NRIP1 / RFU, PTTG1IP / Fold change vs veh, PTTG1IP / RFU, CAPN2 / Fold change vs veh, CAPN2 / RFU, MED14 / Fold change vs veh, MED14 / RFU, SNORA58 / Fold change vs veh, SNORA58 / RFU, C1orf63 / Fold change vs veh, C1orf63 / RFU, LRRFIP1 / Fold change vs veh, LRRFIP1 / RFU, NDUFAF7 / Fold change vs veh, NDUFAF7 / RFU, SLC12A2 / Fold change vs veh, SLC12A2 / RFU, IBTK / Fold change vs veh, IBTK / RFU, ESF1 / Fold change vs veh, ESF1 / Fold change vs veh, TMEM50B / RFU, TAOK1 / Fold change vs veh, TAOK1 / RFU, ACBD3 / Fold change vs veh, ACBD3 / RFU, TMA16 / Fold change vs veh, TMA16 / RFU, RWDD3 / Fold change vs veh, RWDD3 / RFU, BCAT1 / Fold change vs veh, BCAT1 / RFU, EDEM3 / Fold change vs veh, EDEM3 / RFU, TMEM33 / Fold change vs veh, TMEM33 / RFU, WDR75 / Fold change vs veh, WDR75 / RFU, AHCTF1 / Fold change vs veh, AHCTF1 / RFU, TFRC / Fold change vs veh, TFRC / RFU, ZDHHC17 / Fold change vs veh, ZDHHC17 / RFU, NOM1 / Fold change vs veh, NOM1 / RFU, ARL8B / Fold change vs veh, ARL8B / RFU, ZBTB11 / Fold change vs veh, ZBTB11 / RFU, TAMM41 / Fold change vs veh, TAMM41 / RFU, KIAA1704 /// LOC100996395 / Fold change vs veh, KIAA1704 /// LOC100996395 / RFU, ING1 / Fold change vs veh, ING1 / RFU, TRMT61B / Fold change vs veh, TRMT61B / RFU, FUBP3 / Fold change vs veh, FUBP3 / RFU, TP53 / Fold change vs veh, TP53 / RFU, TNKS2 / Fold change vs veh, TNKS2 / RFU, ZFP14 / Fold change vs veh, ZFP14 / RFU, ACTR2 / Fold change vs veh, ACTR2 / RFU, PPP3R1 / Fold change vs veh, PPP3R1 / RFU, PIK3R1 / Fold change vs veh, PIK3R1 / RFU, HNRNPA1 / Fold change vs veh, HNRNPA1 / RFU, RNF170 / Fold change vs veh, RNF170 / RFU, ZNF28 / Fold change vs veh, ZNF28 / RFU, RNGTT / Fold change vs veh, RNGTT / RFU, OGT / Fold change vs veh, OGT / RFU, BRD1 / Fold change vs veh, BRD1 / RFU, MARS / Fold change vs veh, MARS / RFU, ZNF655 / Fold change vs veh, ZNF655 / RFU, FAHD1 / Fold change vs veh, FAHD1 / RFU, BDP1 / Fold change vs veh, BDP1 / RFU, LRRCC1 / Fold change vs veh, LRRCC1 / RFU, ARID1A / Fold change vs veh, ARID1A / RFU, ZNF146 / Fold change vs veh, ZNF146 / RFU, ZNF330 / Fold change vs veh, ZNF330 / RFU, GPN3 / Fold change vs veh, GPN3 / RFU, C9orf123 / Fold change vs veh, C9orf123 / RFU, N4BP2L2 / Fold change vs veh, N4BP2L2 / RFU, ARFIP1 / Fold change vs veh, ARFIP1 / RFU, FAM179B / Fold change vs veh, FAM179B / RFU, BCL10 / Fold change vs veh, BCL10 / RFU, UHRF1BP1L / Fold change vs veh, UHRF1BP1L / RFU, BET1 / Fold change vs veh, BET1 / RFU, CNOT2 / Fold change vs veh, CNOT2 / RFU, ZNF268 / Fold change vs veh, ZNF268 / Fold change vs veh, ZNF507 / RFU, DGCR2 / Fold change vs veh, DGCR2 / RFU, WDSUB1 / Fold change vs veh, WDSUB1 / Fold change vs veh, HSP90B1 /// MIR3652 / RFU, ADSS / Fold change vs veh, ADSS / RFU, GK / Fold change vs veh, GK / RFU, ZNF148 / Fold change vs veh, ZNF148 / RFU, TAF9 / Fold change vs veh, TAF9 / RFU, SLC1A5 / Fold change vs veh, SLC1A5 / RFU, SLMO2 / Fold change vs veh, SLMO2 / RFU, ABCC4 / Fold change vs veh, ABCC4 / RFU, LOC101060439 /// RAP1B / Fold change vs veh, LOC101060439 /// RAP1B / RFU, RFX7 / Fold change vs veh, RFX7 / RFU, GTPBP10 / Fold change vs veh, GTPBP10 / RFU, CNEP1R1 / Fold change vs veh, CNEP1R1 / RFU, BIVM-ERCC5 /// ERCC5 / Fold change vs veh, BIVM-ERCC5 /// ERCC5 / RFU, ILF3 / Fold change vs veh, ILF3 / RFU 11762660_at / Fold change /veh 11762660_at / RFU VCAN (11757783_s_at) / Fold change /veh VCAN (11757783_s_at) / RFU DDX43 (11728927_at) / Fold change /veh DDX43 (11728927_at) / RFU KRT8 (11758188_x_at) / Fold change /veh KRT8 (11758188_x_at) / RFU NKD1 (11759106_at) / Fold change /veh NKD1 (11759106_at) / RFU SRD5A1 (11742802_a_at) / Fold change /veh SRD5A1 (11742802_a_at) / RFU TPSAB1 /// TPSB2 (11721975_s_at) / Fold change /veh TPSAB1 /// TPSB2 (11721975_s_at) / RFU GSTM3 (11746129_a_at) / Fold change /veh GSTM3 (11746129_a_at) / RFU IL23R (11737362_x_at) / Fold change /veh IL23R (11737362_x_at) / RFU TMEM51 (11727254_a_at) / Fold change /veh TMEM51 (11727254_a_at) / RFU PIWIL2 (11732686_x_at) / Fold change /veh PIWIL2 (11732686_x_at) / RFU ORM1 (11744905_x_at) / Fold change /veh ORM1 (11744905_x_at) / RFU CCDC152 (11743942_at) / Fold change /veh CCDC152 (11743942_at) / RFU ECM1 (11717891_a_at) / Fold change /veh ECM1 (11717891_a_at) / RFU IL23R (11748794_a_at) / Fold change /veh IL23R (11748794_a_at) / RFU TNFAIP8L3 (11732012_x_at) / Fold change /veh TNFAIP8L3 (11732012_x_at) / RFU MBOAT4 (11741988_at) / Fold change /veh MBOAT4 (11741988_at) / RFU 11764193_at / Fold change /veh 11764193_at / RFU TMEM53 (11763286_at) / Fold change /veh TMEM53 (11763286_at) / RFU MAGEB2 (11727129_at) / Fold change /veh MAGEB2 (11727129_at) / RFU TMEM200A (11744735_a_at) / Fold change /veh TMEM200A (11744735_a_at) / RFU CCDC152 (11751479_a_at) / Fold change /veh CCDC152 (11751479_a_at) / RFU FAM211A (11726209_a_at) / Fold change /veh FAM211A (11726209_a_at) / RFU RGS16 (11746705_a_at) / Fold change /veh RGS16 (11746705_a_at) / RFU VCAN (11755009_s_at) / Fold change /veh VCAN (11755009_s_at) / RFU RHOB (11743442_s_at) / Fold change /veh RHOB (11743442_s_at) / RFU RGS16 (11720943_a_at) / Fold change /veh RGS16 (11720943_a_at) / RFU RGS16 (11720944_at) / Fold change /veh RGS16 (11720944_at) / RFU, VPS4B / Fold change vs veh, VPS4B / RFU, CREB1 / Fold change vs veh, CREB1 / RFU, DNAJC13 / Fold change vs veh, DNAJC13 / RFU, GNAQ / Fold change vs veh, GNAQ / RFU, CDK5R1 / Fold change vs veh, CDK5R1 / RFU, ZRANB3 / Fold change vs veh, ZRANB3 / RFU, CUL4A / Fold change vs veh, CUL4A / RFU, CCNY / Fold change vs veh, CCNY / RFU, UFL1 / Fold change vs veh, UFL1 / RFU, COG3 / Fold change vs veh, COG3 / RFU, DIAPH2 / Fold change vs veh, DIAPH2 / RFU, SKA2 / Fold change vs veh, SKA2 / RFU, AFF3 / Fold change vs veh, AFF3 / RFU, LMF1 / Fold change vs veh, LMF1 / RFU, IPO11 / Fold change vs veh, IPO11 / RFU, DFFB / Fold change vs veh, DFFB / RFU, FOXP1 / Fold change vs veh, FOXP1 / RFU, CARD8 / Fold change vs veh, CARD8 / RFU, STRN3 / Fold change vs veh, STRN3 / RFU, ADK / Fold change vs veh, ADK / RFU, RASSF2 / Fold change vs veh, RASSF2 / RFU, WIPF1 / Fold change vs veh, WIPF1 / RFU, LARP1B / Fold change vs veh, LARP1B / RFU, RASA1 / Fold change vs veh, RASA1 / RFU, RB1 / Fold change vs veh, RB1 / RFU, PPFIA1 / Fold change vs veh, PPFIA1 / RFU, MAT2A / Fold change vs veh, MAT2A / RFU, CCT5 / Fold change vs veh, CCT5 / RFU, WDR92 / Fold change vs veh, WDR92 / RFU, CUX1 / Fold change vs veh, CUX1 / RFU, TTC7A / Fold change vs veh, TTC7A / RFU, TMEM135 / Fold change vs veh, TMEM135 / RFU, DEPTOR / Fold change vs veh, DEPTOR / RFU, CPM / Fold change vs veh, CPM / RFU, DNAJB6 / Fold change vs veh, DNAJB6 / RFU, CACNA2D3 / Fold change vs veh, CACNA2D3 / RFU, DTX4 / Fold change vs veh, DTX4 / RFU, TFCP2 / Fold change vs veh, TFCP2 / RFU, GMCL1 /// GMCL1P1 / Fold change vs veh, GMCL1 /// GMCL1P1 / RFU, AEBP2 / Fold change vs veh, AEBP2 / RFU, SNHG1 /// SNORD22 /// SNORD25 /// SNORD26 /// SNORD27 /// SNORD28 /// SNORD29 /// SNORD31 / Fold change vs veh, SNHG1 /// SNORD22 /// SNORD25 /// SNORD26 /// SNORD27 /// SNORD28 /// SNORD29 /// SNORD31 / Fold change (Aza/veh), C12orf56 (ProbeSet 11735607_a_at) / Fold change (ACY-1035/veh), C12orf56 (ProbeSet 11735607_a_at) / Fold change (Aza/veh), FGFR1OP (ProbeSet 11751329_s_at) / Fold change (ACY-1035/veh), FGFR1OP (ProbeSet 11751329_s_at) / Fold change (Aza/veh), VPS36 (ProbeSet 11739960_a_at) / Fold change (ACY-1035/veh), VPS36 (ProbeSet 11739960_a_at) / RFU SYPL1 (11715823_x_at) / Fold change /veh SYPL1 (11715823_x_at) / RFU IGFBP7 (11715501_s_at) / Fold change /veh IGFBP7 (11715501_s_at) / RFU REEP3 (11722064_at) / Fold change /veh REEP3 (11722064_at) / RFU IGLL1 (11728026_x_at) / Fold change /veh IGLL1 (11728026_x_at): dose or concentration left out as unconfirmed. The settings on record: MV-4-11 cells, 48 hours.

With `Nc1ccc(-c2cccs2)cc1NC(=O)c1ccc2c(c1)cc(C1CC1)n2CCN1CCOCC1` [ACY-1035], the “RFU SPINT1 (11716480_a_at)” value turned out to be 24.20 RFU.
